Patent US20240156723A1, “DEPOT COMPOSITIONS FOR VESICULAR MONOAMINE TRANSPORTER 2 (VMAT2) INHBITORS” (Foresee Pharmaceuticals Co., Ltd., priority 2022, published 2024)
Each block holds one compound with its values, some of them ahead of it.

How the values were obtained:
[1] = particle size distribution by laser diffraction (Mastersizer 3000); type: physicochemical; details: re-dispersed in 0.2% Tween 20 deionized water
Protocol: (§1) Briefly, 10 mg/mL (+)-TBZ or (±)-d6-TBZ recrystallized crystal was re-dispersed in 0.2% Tween 20 deionized water with a rigorous vortex. The microscopy was conducted using the optical microscope Leica DMi8, with 100-fold magnification. The PSD was measured using laser diffraction method, with Mastersizer 3000 (Malvern, UK). Before particle sizing, the 10 mg/mL (+)-TBZ crystal was re-dispersed in 0.2% Tween 20 deionized water and sonicated for ˜10 sec.
as §1, with “(+)-TBZ” for “(+)-TBZ or (±)-d6-TBZ”
Four grams of raw (+)-TBZ crystals were jet milled in a 20 mm milling chamber at room temperature (Micromacinazione, Switzerland). Briefly, the jet mill was connected to high pressure nitrogen for providing the pneumatic forces. The grinding pressure and feeding pressure are set on 2.5 bar and 5 bar, respectively. The feeding rate of raw (+)-TBZ crystal was 1.6 g/m in. The fine (+)-TBZ powder was collected by the cyclone and recovered in a vial. The yield was ˜80%. The PSD was characterized using laser diffraction method, with Mastersizer 3000 (Malvern, UK). Before particle sizing, the 10 mg/mL (+)-TBZ crystal was re-dispersed in 0.2% Tween 20 deionized water and sonicated for ˜10 sec. […]
Four grams of raw cholesterol crystals (Nippon fine chemical, Japan) was jet milled in a 20 mm milling chamber at room temperature (Micromacinazione, Switzerland). The jet mill was connected to high pressure nitrogen for providing the pneumatic forces. The grinding pressure and feeding pressure are set on 2.5 bar and 5 bar, respectively. The feeding rate of raw cholesterol crystal was 1.6 g/m in. The fine CSTR powder was collected by the cyclone and recovered in a vial. The yield was ˜80%. The PSD was characterized using laser diffraction method, with Mastersizer 3000 (Malvern, UK). Before particle sizing, the 10 mg/mL CSTR crystal was re-dispersed in 0.2% Tween 20 deionized water and sonicated for ˜10 sec.
The spray drying was conducted with Mini Spray Dryer B-290, (Buchi, Switzerland). First, 10 grams of raw cholesterol crystal was dissolved in 300 mL isopropanol (IPA) with 35-40° C. heating to obtain a clear solution. The spray drying was conducted at a flow rate of 12.5 ml/min and completed in 2 hours. The fine CSTR particles were collected by the cyclone and recovered in a vial. The yield was about 80%. […] Briefly, 10 mg/mL SPD CSTR was re-dispersed in 0.2% Tween 20 deionized water with a rigorous vortex. The microscopy was conducted using the optical microscope Leica DMi8, with 100-fold magnification. The PSD was characterized using laser diffraction method, with Mastersizer 3000 (Malvern, UK) and the results are shown in Table 12. Before particle sizing, the 10 mg/mL SPD CSTR was re-dispersed in 0.2% Tween 20 deionized water and sonicated for ˜10 sec. […]
4 grams of raw (+)-α-DHTBZ crystals (Wuxi Pharma, China) were jet milled in a 20 mm milling chamber at room temperature (Micromacinazione, Switzerland). Briefly, the jet mill was connected to high pressure nitrogen for providing pneumatic forces, with grinding pressure and feeding pressure set at 4 and 5 bars, respectively. The feeding rate of raw (+)-α-DHTBZ crystals was 1.6 g/m in. Fine milled (+)-α-DHTBZ crystals were collected by the cyclone and recovered in a vial. The yield was ˜80%. The PSD of jet-milled (+)-α-DHTBZ was characterized using laser diffraction method, with Mastersizer 3000 (Malvern, UK). Before particle sizing, the 10 mg jet milled (+)-α-DHTBZ was re-dispersed in 1 mL of 0.2% Tween-20 deionized water and sonicated for ˜10 sec.

[2] = biological target: serotonin 5-HT7 receptors (Homo sapiens, UniProt P34969); details: serotonin 5-HT7 receptor; read-out: off-target binding affinity to serotonin 5-HT7; cited from earlier work
Chain of serotonin 5-HT7 receptors (P34969 whole entry): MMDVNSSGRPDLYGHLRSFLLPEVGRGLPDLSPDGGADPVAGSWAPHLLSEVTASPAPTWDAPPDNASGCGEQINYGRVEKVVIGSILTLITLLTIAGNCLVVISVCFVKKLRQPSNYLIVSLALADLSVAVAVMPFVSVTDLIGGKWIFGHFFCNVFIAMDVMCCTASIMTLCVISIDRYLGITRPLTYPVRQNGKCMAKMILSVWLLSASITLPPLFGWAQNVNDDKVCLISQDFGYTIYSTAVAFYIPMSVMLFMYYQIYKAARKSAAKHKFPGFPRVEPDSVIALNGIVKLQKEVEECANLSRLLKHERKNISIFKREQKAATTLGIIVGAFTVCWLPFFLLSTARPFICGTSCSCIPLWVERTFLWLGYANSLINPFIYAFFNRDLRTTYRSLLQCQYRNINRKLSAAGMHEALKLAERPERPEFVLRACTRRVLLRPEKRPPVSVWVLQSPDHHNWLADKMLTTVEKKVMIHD

dopamine D2 = dopamine D2 (Homo sapiens, UniProt P14416); details: dopamine D2 receptor; read-out: off-target binding affinity to dopamine D2; cited from earlier work
Chain of dopamine D2 (P14416 whole entry): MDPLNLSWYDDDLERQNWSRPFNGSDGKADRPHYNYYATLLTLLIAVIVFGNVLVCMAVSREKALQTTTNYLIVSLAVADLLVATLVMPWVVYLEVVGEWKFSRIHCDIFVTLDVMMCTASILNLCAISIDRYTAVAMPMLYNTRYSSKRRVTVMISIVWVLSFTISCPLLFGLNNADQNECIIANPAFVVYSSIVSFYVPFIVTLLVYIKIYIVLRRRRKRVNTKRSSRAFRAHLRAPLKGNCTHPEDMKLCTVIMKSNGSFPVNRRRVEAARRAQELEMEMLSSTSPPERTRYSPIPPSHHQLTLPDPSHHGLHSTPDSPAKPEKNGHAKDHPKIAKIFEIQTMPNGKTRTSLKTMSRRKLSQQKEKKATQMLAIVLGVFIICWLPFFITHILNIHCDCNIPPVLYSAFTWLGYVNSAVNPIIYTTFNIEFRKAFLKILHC

solubility in heptane = type: physicochemical; details: room temperature
[3] = cited from earlier work
[4] = listed as 3 g rex (+)-TBZ-1 iii

D10 (μm) [1]: 12.3 μm
D50 (μm) [1]: 25.6 μm
D90 (μm) [1]: 45.4 μm
Compound: (RR, SS)-1,3,4,6,7,11b-hexahydro-9, 10-di(methoxy-d3)-3-(2-methylpropyl) 2H-benzo[a]quinolizin-2-one [(±)-d6-TBZ, reference compound]

D10 (μm) ([1]; listed as 3 g rex (+)-TBZ-1 i): 17.3 μm
D50 (μm) ([1]; listed as 3 g rex (+)-TBZ-1 i): 38.5 μm
D90 (μm) ([1]; listed as 3 g rex (+)-TBZ-1 i): 75.0 μm
D10 (μm) ([1]; listed as 3 g rex (+)-TBZ-1 ii): 22.0 μm
D50 (μm) ([1]; listed as 3 g rex (+)-TBZ-1 ii): 45.9 μm
D90 (μm) ([1]; listed as 3 g rex (+)-TBZ-1 ii): 85.7 μm
D10 (μm) [1, 4]: 16.6 μm
D50 (μm) [1, 4]: 33.7 μm
D90 (μm) [1, 4]: 60.7 μm
D10 (μm) ([1]; listed as 12 g rex (+)-TBZ i): 15.9 μm
D50 (μm) ([1]; listed as 12 g rex (+)-TBZ i): 34.9 μm
D90 (μm) ([1]; listed as 12 g rex (+)-TBZ i): 65.8 μm
D10 (μm) ([1]; listed as 12 g rex (+)-TBZ ii): 17.7 μm
D50 (μm) ([1]; listed as 12 g rex (+)-TBZ ii): 40.8 μm
D90 (μm) ([1]; listed as 12 g rex (+)-TBZ ii): 80.4 μm
D10 (μm) ([1]; listed as 12 g rex (+)-TBZ iii): 16.7 μm
D50 (μm) ([1]; listed as 12 g rex (+)-TBZ iii): 38 μm
D90 (μm) ([1]; listed as 12 g rex (+)-TBZ iii): 76 μm
D10 (μm) ([1]; listed as Jet milled (+)-TBZ): 2.5 μm
D50 (μm) ([1]; listed as Jet milled (+)-TBZ): 5.2 μm
D90 (μm) ([1]; listed as Jet milled (+)-TBZ): 11.8 μm
D10 (μm) ([1]; listed as Raw (+)-TBZ): 14.3 μm
D50 (μm) ([1]; listed as Raw (+)-TBZ): 66.5 μm
D90 (μm) ([1]; listed as Raw (+)-TBZ): 184 μm
solubility in heptane (solubility in heptane): < 0.4 % by weight
Compound: COc1cc2c(cc1OC)[C@H]1CC(=O)[C@H](CC(C)C)CN1CC2 [(+)-TBZ, (3R,11bR)-tetrabenazine]

D10 (μm) [1]: 4.2 μm
D50 (μm) [1]: 9.2 μm
D90 (μm) [1]: 20.1 μm
Compound: COc1cc2c(cc1OC)C1CC(=O)C(CC(C)C)CN1CC2 (racemic) [TBZ, 1,3,4,6,7,11b-hexahydro-9,10-dimethoxy-3-(2-methoxylrpopryl)-2H-benzo(a)quinoline-2-one, reference compound]
oral bioavailability [3]: 17%

D50 (μm) [1]: 27.3 μm
D10 (μm) ([1]; listed as Jet milled CSTR): 0.3 μm
D50 (μm) ([1]; listed as Jet milled CSTR): 4.6 μm
D90 (μm) ([1]; listed as Jet milled CSTR): 12 μm
D10 (μm) ([1]; listed as Raw CSTR): 14.1 μm
D50 (μm) ([1]; listed as Raw CSTR): 27.3 μm
D90 (μm) ([1]; listed as Raw CSTR): 48 μm
D10 (μm) ([1]; listed as Spray dried CSTR): 0.2 μm
D50 (μm) ([1]; listed as Spray dried CSTR): 2.0 μm
D90 (μm) ([1]; listed as Spray dried CSTR): 5.0 μm
solubility in heptane (solubility in heptane): > 10 % by weight
Compound: CC(C)CCC[C@@H](C)[C@H]1CC[C@H]2[C@@H]3CC=C4C[C@@H](O)CC[C@]4(C)[C@H]3CC[C@]12C [cholesterol]

More lines, now with the values behind:

Compound: [−]-β-dihydrotetrabenazine [(−)-(β)-DHTBZ]
Ki [2]: 5.9 nM
Ki (dopamine D2): 53 nM

Compound: COc1cc2c(cc1OC)[C@H]1C[C@@H](OC(=O)[C@@H](N)C(C)C)[C@H](CC(C)C)CN1CC2 [VBZ, L-Valine, (2R,3R,11bR)-1,3,4,6,7,11b-hexahydro-9,10-dimethoxy-3-(2-methylpropyI)-2H-benzo[a]quinolizin-2-yl ester]
oral bioavailability [3]: ~50%

Compound: COc1cc2c(cc1OC)C1CC(O)C(CC(C)C)CN1CC2 (single isomer, unassigned; (+)) [(+)-(α)-DHTBZ, [+]-α-dihydrotetrabenazine]
D10 (μm) [1]: 5 μm
D50 (μm) [1]: 13 μm
D90 (μm) [1]: 40 μm

Compound: COc1cc2c(cc1OC)[C@H]1C[C@@H](O)[C@H](CC(C)C)CN1CC2 [(−)-(α)-DHTBZ, [−]-α-dihydrotetrabenazine]
Ki [2]: 71 nM
Ki (dopamine D2): 180 nM
